Patent US20250027086A1, “COMPOSITIONS AND METHODS FOR TREATMENT OF CANCERS USING MODIFIED siRNA-GEM AGENTS” (Sirnaomics, Inc., priority 2022, published 2025)
“Also recorded” adds a separate entry of the source. Like-named read-outs stand apart in the source and are kept apart here. One block for each molecule: values may come before it.

Legend:
MiaPaCa-2 cells = test: Cell viability (CellTiter-Glo) in MiaPaCa-2 pancreatic cancer cells after transfection; type: cell-based, human; details: Homo sapiens, MIA PaCa-2
Procedure: (§1) MIA PaCa-2, […], LS180, HT1376, HT29, H358, H1299, OVCAR-3, HTB-9 and Panc 10.05 cells were obtained from ATCC (Rockville, MD). MiaPaCa cells were cultured in DMEM medium supplemented with 10% FBS. H358, H1299, HTB-9, N87 and Panc 10.05 cells were cultured in DMEM/10% FBS; LS180 and HT1376 in EMEM/10% FBS; HT29 cells in McCoy5A/10% FBS; OVCAR-3 cells were incubated in RPMI/20% FBS. All cells were maintained at 37 degrees C. in an atmosphere containing 5% CO^2.
(§2) The day before transfection, cells were seeded in a 384-well plate at an optimal density of between 300 and 800 cells/well. The next day, ten 3-fold serial dilutions of single, modified-backbone siRNAs or PGN6/PGN7 siRNA and Gemcitabine (GEM) mixed with siRNAs: Wee1 #7, KRAS #1, MCL1 #3 or DM2-P47 siRNAs at 1:1 ratio were prepared and combined with diluted Lipofectamine RNAiMAX (Life Technologies, Carlsbad, CA). Within 20 minutes, 10 μl of the transfection mixtures were added to the cells in a 40 μL medium. The final concentrations of siRNAs or Gemcitabine in the wells ranged from 100 nM to 0.002 nM.
(§3) Ninety-six hours following the addition of GEM or transfection mixtures, the number of viable cells was determined with CellTiter-Glo®-2.0 reagent (Promega, Madison, WI) by measuring luminescent signal using a Cytation 5 plate reader (BioTek Inc, Winooski, VT). The treatment group (n=4) mean (±SD) was compared to those of non-treated controls and were reported as relative cell viability.

MDA-MB231 cells = test: Cell viability in triple negative breast cancer cell line MDA-MB231; type: cell-based; details: MDA-MB231, 400 cells per well; FIG. 13(a)
Procedure: as §1
(§4) The day before transfection, cells were seeded in a 384-well plate at an optimal density of between 300 and 800 cells/well. […]
(§5) Ninety-six hours following the addition of GEM or transfection mixtures, the number of viable cells was determined with CellTiter-Glo®-2.0 reagent (Promega, Madison, WI) by measuring luminescent signal using a Cytation 5 plate reader (BioTek Inc, Winooski, VT). […]
(§6) Using the same or similar experimental condition as are described above in Example 1, the effects of (i) PGN7 (SEQ. ID No. 9-10) plus a non-signaling oligonucleotide (“NS”), (ii) BCLxL #5 (SEQ. ID No. 14)+NS, and (iii) PGN7 and BCLxL #5 in combination were evaluated and are shown in triple negative breast cancer (MDA-MB231) and ovarian cancer (OVCAR3) cell lines in FIGS. 13 (a)-(b). […]

OVCAR3 cells = test: Cell viability in ovarian cancer cell line OVCAR3; type: cell-based; details: OVCAR3, 800 cells per well; FIG. 13(b)
Procedure: as §1, §4, §5, §6

[1] = tested on: MIA PaCa-2 human pancreatic cancer xenograft; test: PGN6 efficacy on pancreatic tumor growth in NOD/SCID mice inoculated with MIA PaCa-2; type: in vivo, mouse
Source text: Twenty, 6- to 9-week old NOD/SCID female mice were purchased from the Jackson Laboratory. Each mouse was tagged for identification at the beginning of the study. Up to 5 mice were housed in a single cage with standard corn cob bedding for a minimum of three days for stabilization; bedding was changed every two weeks. Fluorescent lighting was provided on a 12-hour cycle; temperature was maintained between 68-79 degrees F. at 30-70 percent humidity. Mice were fed an 18 percent soy irradiated rodent feed (Envigo) and autoclaved acidified water (pH 2.5-3) were available to all animals ad libitum. The mice were observed daily for clinical signs of disease.
Tumor cell preparation: Cryogenic vials containing tumor cells were thawed and cultured according to the manufacturer's protocol. On the day of inoculation, cells were washed in a serum-free media, counted, and resuspended in cold serum-free media at a concentration of 3 million cells per 100 microliters. […]
Tumor measurement: Mice were monitored weekly for palpable tumors or changes in appearance or behavior. Once tumors were palpable they were measured weekly using calipers. Tumor volume was calculated using the equation: […]
Once tumors were on average between 150-250 mm^3 in volume, tumors and body weights were measured at least twice weekly for the duration of the study. […]

[2] = tested on: pancreatic, lung and colon cancer cell lines; test: Cell viability in pancreatic, lung and colon cancer cell lines; type: cell-based
Procedure: as §1, §2, §3
Using the same experimental conditions as are described above in Example 1, the efficacy on cell viability was evaluated for PGN6 (SEQ. ID Nos. 7-8), with and without lipofentamine (“lipo”) in three types of cancer cell lines. FIG. 3 (a)-(c) show the effects of PGN6, with and without lipo on cell viability at increasing siRNA levels in pancreatic cancer cell lines. FIG. 4 (a)-(b) similarly show the effects of these variants on cell viability in lung cancer cell lines; FIG. 5 (a)-(b) show the effects of these variants on cell viability in colon cancer cell lines. All data are shown as mean±SD. […]
Using the same experimental conditions as are described above in Example 1, the efficacy of STD1 (SEQ. ID Nos. 1-2), PGN6 (SEQ. ID Nos. 7-8) and PGN7 (SEQ. ID Nos. 9-10) were evaluated in three types of cancer cell lines. […]
Using the same experimental conditions as are described above in Example 1, the efficacy of PGN7 (SEQ. ID No. 9-10) alone and its combination with WEE1 #7 (SEQ. ID No. 13) was evaluated in three types of cancer cell lines. […]
Using the same experimental conditions as are described above in Example 1, the efficacy of PGN7 (SEQ. ID No. 9-10) and the combination of BCLxL #5 (SEQ. ID No. 14) and PGN7 was evaluated in three types of cancer cell lines. […]

[3] = tested on: HT1376, HTB-9, N87 and OVCAR-3 cell lines; test: Cell viability in urinary bladder, gastric and ovarian cancer cell lines; type: cell-based; details: HT1376, HTB-9, N87, OVCAR-3; FIGS. 9-10
Procedure: as §1, §4, §5
Using the same or similar experimental condition as are described above in Example 1, the effects of PGN7 (SEQ. ID No. 9-10), Wee1 (SEQ. ID No. 13), BCLxL #5 (SEQ. ID No. 14) or the PGN7+Wee1, or PGN+BCLxL combinations were evaluated and are shown in HT1376 (400 cells/well) and HTB-9 (800 cells/well) urinary bladder cancer cell lines, N87 (600 cells/well) gastric cancer cell line, and OVCAR-3 (800 cells/well) ovarian cancer line in FIGS. 11 (a)-(d). […]

- IC50 (MiaPaCa-2 cells; in combination with lipofectamine, 96 h, n=4 (FIG. 2), read-out: IC50, MiaPaCa-2 cell viability): 8 nM
- IC50 (MiaPaCa-2 cells; with lipofectamine (GEM alone for gemcitabine), FIG. 2, read-out: ID50, MiaPaCa cells): 8 nM
Molecule: Nc1ccn([C@@H]2O[C@H](CO)[C@@H](O)C2(F)F)c(=O)n1 [Gemcitabine, 2′, 2′-difluoro 2′-deoxycytidine]

Molecule: BCLxL #5: siRNA sequence used to target BCLxL, SEQ. ID No. 14 (no GEM) (GCGTGGAAAGCGTAGACAAGGAGAT; listed as DNA, chemistry not given here)
- IC50 (MDA-MB231 cells): 0.5 nM
- IC50 (OVCAR3 cells): 2.7 nM

Molecule: PGN6: modified siRNA-GEM molecule (SEQ. ID No. 7-8): sense 5′-AAGAAAgAgau [GEM]UGUAU[GEM]AAU-3′; antisense 5′-AuUGAuACAGAUCuCuuucuu[GEM][GEM]dTdT-3′ (sense AAGAAAGAGATCTGTATCAAT; antisense ATTGATACAGATCTCTTTCTTCCTT; GEM modifications; dTdT overhang; modified_base 1 OTHER; 2'-O-methyl modified nucleotide; modified_base 2 OTHER; modified_base 3 OTHER; modified_base 4 OTHER; modified_base 5 OTHER; modified_base 6 OTHER; modified_base 7 OTHER; 2'-fluoro modified nucleotide; modified_b; 2'-O-me)
- pancreatic tumor volume / tumor growth ([1]; 2 mg/kg IV twice weekly for three weeks, with DODAB siRNA in HKP(+H), vs control, n=10, FIG. 12(a)): attenuate or prevent tumor growth; also recorded: tumors did not grow; also recorded: attenuating the growth of pancreatic tumors
- body weight ([1]; 2 mg/kg twice weekly, 20 days treatment period, FIG. 12(b)): body weight remained constant
- effectiveness with lipofectamine versus without lipofectamine ([2]; lung (FIG. 4) and colon (FIG. 5) cancer cell lines): apparently more effective
- effectiveness with lipofectamine versus without lipofectamine ([2]; pancreatic lines MiaPaCa (G12C), BXPC3 (WT), Panc10.05, FIG. 3): more effective
- reduction of cell viability ([2]; single siRNA against non-silencing control, pancreatic, lung, colon, FIG. 6): effective in reducing cell viability

Molecule: WEE1 #7: siRNA sequence used to target WEE1, SEQ. ID No. 13 (no GEM) (CGCTCTGTCAGCCTTACTA; listed as DNA, chemistry not given here)
- efficacy on cell viability [3]: significant efficacy
